Laboratory results published in ChEMBL document CHEMBL1201862, “PubChem BioAssay data set” (2004).
Values joined by “and” are separate entries in the source; they are usually repeats but may differ in a detail not shown here. Equal entries are not always repeated.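 Growth conditions: 96-well plates. Treatment: test compound, 48 hours, 5 concentrations. Analysis: linear interpolation between bracketing concentrations; unreached endpoints set to highest concentration. Here, GI50 denotes the concentration required for 50% inhibition of growth.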 Active and inactive are the calls of the source. Rule as the data show it: active = GI50 up to about 1.1 µM and inactive = higher.

Legend:
Assay in all cases: inhibition of tumour cell growth, NCI panel, 48 h
DLD-1 = test system: DLD-1
HOP-18 = test system: HOP-18
DMS-273 = test system: DMS-273
M19-MEL = test system: M19-MEL
LXFL 529 = test system: LXFL 529
DMS-114 = test system: DMS-114
SNB-78 = test system: SNB-78
RXF 631 = test system: RXF 631
XF498 = test system: XF498

Measured: GI50

COc1ccc(C(=O)CC(=O)C(=O)Nc2ccc(C)c(C)c2)cc1
inactive: DLD-1 61.8 µM | HOP-18 > 70.8 µM | DMS-273 40 µM | M19-MEL > 100 µM | LXFL 529 > 64.9 µM | DMS-114 22.8 µM | SNB-78 > 100 µM | RXF 631 > 68.2 µM

O=C(c1ccccc1)c1nnn(Cc2ccccc2Cn2nnc(C(=O)c3ccccc3)c2C(=O)c2ccccc2)c1C(=O)c1ccccc1
inactive: DLD-1 > 100 µM | HOP-18 > 100 µM | DMS-273 > 100 µM | M19-MEL > 100 µM | LXFL 529 > 100 µM | DMS-114 81.1 µM | SNB-78 > 100 µM

c1ccc(-c2nnc(-c3nn(-c4ccccc4)c4nc5ccccc5nc34)o2)cc1
inactive: DLD-1 25.1 µM | HOP-18 20 µM | DMS-273 92 µM | M19-MEL 47.8 µM | LXFL 529 12.3 µM | DMS-114 28.8 µM | SNB-78 > 100 µM | XF498 22.1 µM

CC1=NN(C(=O)CC(=O)Nc2cccc(Cl)c2)C(=O)C1/N=N/c1ccc(S(N)(=O)=O)cc1 (stereo unspecified)
inactive: DLD-1 > 100 µM | HOP-18 > 100 µM | DMS-273 > 100 µM | M19-MEL > 100 µM | LXFL 529 > 100 µM | DMS-114 > 100 µM | SNB-78 > 100 µM | XF498 > 100 µM

NC1=NC(=O)/C(=C2\CCNC(=O)c3[nH]c(Br)cc32)N1 [HYMENIALDISINE]
inactive: DLD-1 37.6 µM | HOP-18 > 45.1 µM | DMS-273 > 85.5 µM | M19-MEL 48.5 µM | DMS-114 13 µM | SNB-78 86.3 µM | XF498 > 100 µM

CCc1ccccc1NC(=O)C1=C(C)NC(C)=C(C(=O)Nc2ccccc2CC)C1c1ccc(NC(C)=O)cc1
inactive: DLD-1 26.5 µM | M19-MEL 32.7 µM | LXFL 529 33 µM | DMS-114 28.1 µM | SNB-78 33.3 µM

OCC1C(/C=C/c2ccoc2)ON2CCCC12 (stereo unspecified)
active: HOP-18 0.279 µM
inactive: DLD-1 > 100 µM | DMS-273 > 100 µM | M19-MEL > 100 µM | LXFL 529 > 100 µM | SNB-78 > 100 µM | XF498 > 100 µM

COc1ccc(-c2c(C3=NCCN3)nnn2-c2ccccc2)cc1
inactive: DLD-1 > 100 µM | HOP-18 > 100 µM | DMS-273 > 100 µM | M19-MEL > 100 µM | LXFL 529 > 100 µM | DMS-114 > 100 µM | SNB-78 > 100 µM | XF498 > 100 µM

C[Si](C)(C)C#C[I+]c1ccccc1
inactive: DLD-1 19.4 µM | HOP-18 75.5 µM | DMS-273 19.8 µM | M19-MEL 31.6 µM | LXFL 529 28.4 µM | DMS-114 20.9 µM | SNB-78 50.2 µM | XF498 29.8 µM | RXF 631 30.1 µM

CCN(CC)CCCn1cnc2ncccc2c1=O
inactive: DLD-1 > 100 µM | DMS-273 > 100 µM | M19-MEL > 100 µM | LXFL 529 > 100 µM | DMS-114 > 100 µM | SNB-78 > 100 µM

C/C(=N/OCCC(=O)O)C1CC1
inactive: DLD-1 > 100 µM | HOP-18 > 100 µM | DMS-273 > 100 µM | M19-MEL > 100 µM | LXFL 529 > 100 µM | DMS-114 > 100 µM | SNB-78 > 100 µM | XF498 > 100 µM

COc1cc2c(cc1OC)C(SC)C(=O)N(Cc1cccc(OC)c1OC)CC2 (stereo unspecified)
inactive: DLD-1 2.01 µM | HOP-18 1.49 µM | M19-MEL 1.2 µM | LXFL 529 2.84 µM
active: DMS-273 0.553 µM | DMS-114 0.621 µM | SNB-78 0.359 µM

Cc1ccc(-c2cc(=S)n(-c3ccccc3)c3[nH]c(=S)n(-c4ccccc4)c(=N)c23)cc1
inactive: DLD-1 > 100 µM | DMS-273 > 100 µM | M19-MEL > 100 µM | LXFL 529 > 100 µM | DMS-114 > 100 µM

COc1ccc(OC(C)C(=O)O)c2c1CCCC2=O (stereo unspecified)
inactive: DLD-1 > 100 µM | DMS-273 > 100 µM | M19-MEL > 100 µM | LXFL 529 > 100 µM | DMS-114 > 100 µM | SNB-78 > 100 µM | XF498 > 100 µM

O/N=C1/C(=C/c2ccc(Cl)cc2)CCCC1C(NO)c1ccc(Cl)cc1 (stereo unspecified)
inactive: DLD-1 26.5 µM | HOP-18 20.3 µM | DMS-273 17.8 µM | M19-MEL 22.9 µM | LXFL 529 25.3 µM | DMS-114 24.5 µM | SNB-78 21.9 µM | XF498 22.5 µM | RXF 631 18.1 µM

COc1ccc(/C=C/C(=O)c2c(-c3ccccc3)nn(C)c(=O)c2N2CCOCC2)cc1
active: XF498 0.0601 µM
inactive: DLD-1 > 100 µM | HOP-18 > 100 µM | DMS-273 > 100 µM | M19-MEL > 100 µM | LXFL 529 > 100 µM | DMS-114 > 100 µM | RXF 631 > 100 µM

CCOc1ccccc1/N=N/c1c(-c2ccccc2)nn(C(=O)CC(=O)Nc2cccc(C)c2)c1-c1ccccc1
inactive: DLD-1 62.8 µM | HOP-18 > 100 µM | DMS-273 > 100 µM | M19-MEL > 100 µM | LXFL 529 > 100 µM | DMS-114 44.8 µM | SNB-78 > 100 µM | XF498 > 100 µM | RXF 631 26.2 µM

CC(C)(Oc1ccc(/C=C/C(=O)c2ccccc2)cc1)C(=O)Nc1c(Cl)cccc1Cl
inactive: DLD-1 > 10 µM | HOP-18 > 10 µM | DMS-273 8.07 µM | M19-MEL > 10 µM | LXFL 529 6.56 µM | DMS-114 8.47 µM | SNB-78 > 10 µM | XF498 > 10 µM

COc1ccc2c(c1)[n+]([O-])c(-c1ccccc1Cl)c(N)[n+]2[O-]
inactive: DLD-1 > 100 µM | HOP-18 > 100 µM | DMS-273 55.6 µM | M19-MEL 69.8 µM | LXFL 529 55.3 µM | DMS-114 32.8 µM | SNB-78 > 100 µM | RXF 631 37.4 µM

O=[N+]([O-])c1cccc(C2N3CCCCC3[C@@H]3c4[nH]c5ccccc5c4CCN23)c1 (stereo partly specified)
inactive: DLD-1 12.3 µM | HOP-18 54.6 µM | DMS-273 11.8 µM | M19-MEL 11.9 µM | LXFL 529 19 µM | DMS-114 6.9 µM | SNB-78 9.79 µM | XF498 14 µM

CSC1=Nc2ccccc2N=C(c2ccccc2)C1
inactive: DLD-1 29.4 µM | HOP-18 > 100 µM | DMS-273 39.6 µM | M19-MEL 54.6 µM | LXFL 529 70 µM | DMS-114 21.5 µM | SNB-78 > 100 µM | XF498 39.4 µM | RXF 631 46.7 µM

COc1cc(/C=C2\C(=O)N(C(=O)c3ccc(NC(C)=O)cc3)N=C2C)ccc1O
inactive: DLD-1 > 100 µM | HOP-18 > 100 µM | DMS-273 > 100 µM | M19-MEL > 100 µM | DMS-114 > 100 µM | SNB-78 > 100 µM

COC1C(OC(=S)Nc2ccccc2)c2ccccc2N1C(C)=O (stereo unspecified)
inactive: DLD-1 90.2 µM | HOP-18 > 100 µM | DMS-273 85.3 µM | M19-MEL > 100 µM | LXFL 529 44.4 µM | DMS-114 60.7 µM | SNB-78 > 100 µM | XF498 > 100 µM

Cc1cccc(C)c1NC(=O)C1C(=O)N(c2c(C)cccc2C)C(=O)/C1=N\NC(N)=S (stereo unspecified)
inactive: DLD-1 > 100 µM | HOP-18 17.3 µM | M19-MEL > 100 µM | LXFL 529 > 100 µM | DMS-114 36.1 µM | SNB-78 > 100 µM

COc1cc(/C=C/C(=O)c2cccc3ccccc23)cc(OC)c1OC
inactive: DLD-1 3.85 µM | HOP-18 12.4 µM | DMS-273 3.59 µM | M19-MEL 7.33 µM | LXFL 529 2.73 µM | SNB-78 3.44 µM | XF498 7.74 µM

CC(C)C(NCc1c2ccccc2nc2ccccc12)C(=O)O (stereo unspecified)
inactive: DLD-1 23.8 µM | DMS-273 32.6 µM | M19-MEL 33 µM | LXFL 529 39 µM | DMS-114 27.2 µM | XF498 21.1 µM | RXF 631 19.9 µM

Cc1ccc(S(=O)(=O)ON=C2CC(c3ccccc3)N(C)C(c3ccccc3)C2)cc1 (stereo unspecified)
inactive: DMS-273 20.7 µM and 19.5 µM | M19-MEL 20.8 µM and 21.7 µM | LXFL 529 15.6 µM and 16.6 µM | DMS-114 14.7 µM | SNB-78 19.1 µM and 23.1 µM

CN(C)/C(=N/C(=S)Nc1ccccc1)SCc1ccccc1
inactive: DLD-1 44.3 µM | HOP-18 > 100 µM | DMS-273 51.6 µM | M19-MEL 14.7 µM | LXFL 529 2.38 µM | DMS-114 9.93 µM | SNB-78 > 100 µM | XF498 24.4 µM | RXF 631 88.1 µM

COC1(OC)C2(Cl)C3=CCCC=C3C1(Cl)C(Cl)=C2Cl
inactive: DLD-1 28.9 µM | DMS-273 13.3 µM | M19-MEL 18.8 µM | LXFL 529 25.6 µM | DMS-114 18.1 µM | SNB-78 31.8 µM | XF498 19.2 µM | RXF 631 13.2 µM

COc1ccc(-c2c(C3=NCCCN3)nnn2-c2ccc([N+](=O)[O-])cc2)cc1
inactive: DLD-1 > 100 µM | HOP-18 > 100 µM | DMS-273 > 100 µM | M19-MEL > 100 µM | LXFL 529 > 100 µM | DMS-114 > 100 µM | SNB-78 > 100 µM

CCCCCCC(=O)CC(=O)C(=O)Nc1ccccc1C
inactive: DLD-1 > 67.5 µM | HOP-18 > 100 µM | DMS-273 > 100 µM | M19-MEL > 100 µM | LXFL 529 > 100 µM | DMS-114 > 69.7 µM | SNB-78 > 100 µM | XF498 > 100 µM | RXF 631 > 100 µM
